What was measured:
C9orf72 V2 transcripts = test: RT-qPCR analysis of C9V2 mRNA levels in human RPE1 cells after drug treatment; type: cell-based; details: 24 h; for levels of C9orf72 V2 transcripts: vs DMSO, FIG. 13J; for C9V2 mRNA, as measured by RT-qPCR: increasing concentrations of TM or TG, FIG. 13G
Method: (§1) Cell culture, drug treatment, lentiviral shRNA knockdown, and live-cell imaging—HEK293 cells and mouse embryonic fibroblast (MEF) cells were cultured in DMEM containing 10% FBS. Human retinal pigment epithelial 1 (RPE1) cells were cultured in DMEM/F12 containing 10% FBS and 0.01 mg/ml hygromycin B. Human B lymphocytes were cultured in RPMI 1640 medium containing 15% FBS. Human iPSCs were obtained from the NINDS Human Cell and Data Repository and maintained in StemFlex medium (Gibco, A3349401), with medium exchange every other day. All cell lines were checked regularly for mycoplasma contamination. To induce cell stress, RPE1 cells were treated with thapsigargin (30 nM) or tunicamycin (5 μg/ml) for 24 h, and B lymphocytes were treated with thapsigargin (40 nM) or tunicamycin (1 μg/ml) for 24 h. To express PR82, RPE1 cells were transfected with the pLenti-PR82 plasmid and cultured for 48 h.
(§2) Quantitative PCR— Total RNAs were extracted with an RNeasy Plus mini kit (Qiagen, 74136), and cDNAs were synthesized using QuantiTect reverse transcription reagents (Qiagen, 205313). qPCR reactions were carried out on a Bio-Rad thermal cycler using PowerUp SYBR Green Master Mix (ThermoFisher Scientific). The primer sets for C9orf72 transcripts V1, V2, and V3 were described previously (Gendron et al., 2017, incorporated herein by reference). The expression of C9orf72 pre-mRNA was measured with a pair of primers targeted to the junction region between exon 2 and intron 3 (SEQ ID NO: 11 and 12). The mRNA expression levels were analyzed by the ΔΔCt method and normalized against housekeeping genes. In the promoter analysis, the EGFP transcription level was normalized to the GAPDH transcript and the plasmid-encoded ampicillin resistance (AmpR) transcript to exclude any bias induced by differential transfection efficiency.

C9HRE iMNs = test: Neuronal survival of C9HRE iMNs under tunicamycin stress, calcein-AM staining; type: cell-based, human
Method: (§3) Motor neuron differentiation of human iPS cells and experimental analyses—The differentiation of iPSCs into motor neurons was performed as previously described (Liu et al., 2018). In brief, iPSCs were seeded onto Matrigel-coated plates and differentiated into neuroepithelial progenitor cells (NEPCs) by culturing 6 days in neural medium (1:1 DMEM/F12:neurobasal medium. GlutaMax, N2 supplement, B27 supplement, and ascorbic acid) containing 3 μM […], 2 μM SB431542, and 2 μM DMH-1. NEPCs were dissociated with dispase (1 U/ml) and split into new plates coated with Matrigel at a ratio of about 1:6. NEPCs were differentiated into motor neuron progenitor cells (MNPCs) using neural medium supplemented with 1 μM CHIR99021, 2 μM SB431542, 2 μM DMH-1, 0.1 μM retinoic acid (RA), and 0.5 μM purmorphamine. After culturing for 6 days, MNPCS were dissociated and cultured in suspension using neural medium containing 0.5 μM RA and 0.1 μM purmorphamine. Six days later, neural spheres were dissociated and plated onto a Matrigel-coated plate. Adherent neural spheres were cultured in neural medium supplemented with 0.5 μM RA, 0.1 μM purmorphamine, and 0.1 μM compound E. After 12 days, mature motor neurons were provided for experiments. The medium was changed every other day during the entire differentiation period.
For knockdown experiments on motor neurons, iMNs were infected twice with the shRNA-expressing lentiviruses, on day 10 and day 12 at the final differentiation stage, and the cells were used on day 15 to allow for efficient DAXX knockdown. Mature iMNs were stressed with tunicamycin (5 μg/ml) in the presence of Na-Phen (10 μM) or 5-aza-2 ([…]) for the indicated times, and neuronal survival at each time point was measured by calcein-AM staining. In brief, iMNs were stained with 3 μM calcein-AM (Invitrogen, C1430), and the fluorescence of surviving iMNs was read using a plate reader (Synergy H1 Hybrid) with excitation/emission at 485 nm/535 nm. Optical fields with calcein-positive iMNs were randomly selected and images captured using a fluorescence microscope (Nikon Eclipse TS100).

[1] = system: mutant SOD1 mouse model of ALS; details: Ryu et al., 2005; cited from earlier work
C9orf72 protein and mRNA = test: Stress-induced C9orf72 expression in control and C9HRE B lymphocytes (immunoblotting, RT-qPCR); type: cell-based, human; details: tunicamycin 1 μg/ml or thapsigargin 40 nM, 24 h; for dynamic regulation of C9orf72 expression: B lymphocytes from C9HRE patients; for stress-responsive induction of C9orf72 expression at both the protein and mRNA levels: normal B lymphocytes
Method: as §1, §2
Immunoblotting—Cultured cells were washed twice with PBS and lysed in cold RIPA buffer containing 50 mM Tris (pH 7.5), 0.5% SDS, 150 mM NaCl, 0.5% NP40, 20 mM EDTA, 1 mM PMSF, and Protease Inhibitor Cocktail (1:200, Millipore Sigma, P8340).
(§4) Protein concentrations were measured by the bicinchoninic acid assay (ThermoFisher, 23225). […] Western blot images were captured by an Odyssey scanner (LI-COR) and analyzed with Image Studio (version 5.2.5). […]

C9orf72 V2 promoter = test: ChIP-qPCR of H3K9me3 and H3K27ac at the C9orf72 V2 promoter in human RPE1 cells; type: cell-based; details: 24 h, vs DMSO, FIG. 13I
Method: as §1
Chromatin immunoprecipitation qPCR—ChIP-qPCR analysis of RPE1 cells, B lymphocytes, and iPSC-differentiated motor neurons was performed by using a CHIP assay kit (Millipore Sigma, 17-295). In brief, protein complexes were crosslinked with 1% formaldehyde at 37° C. for 10 min and quenched with glycine at a final concentration of 125 mM at 37° C. for 5 min. […]

C9V2 mRNA = test: RT-qPCR analysis of C9V2 mRNA in HEK293 cells after stressor treatment; type: cell-based, human; details: increasing concentrations of TM or TG, 24 h, FIG. 13F
Method: as §1, with “To express PR82, RPE1 cells were transfected with the pLenti-PR82 plasmid and cultured for 48 h.” left out
(§5) Quantitative PCR— Total RNAs were extracted with an RNeasy Plus mini kit (Qiagen, 74136), and cDNAs were synthesized using QuantiTect reverse transcription reagents (Qiagen, 205313). qPCR reactions were carried out on a Bio-Rad thermal cycler using PowerUp SYBR Green Master Mix (ThermoFisher Scientific). […] The expression of C9orf72 pre-mRNA was measured with a pair of primers targeted to the junction region between exon 2 and intron 3 (SEQ ID NO: 11 and 12). The mRNA expression levels were analyzed by the ΔΔCt method and normalized against housekeeping genes. […]

[2] = system: C9orf72 protein and V2 mRNA; test: Stress-induced C9orf72 expression in control and C9HRE iMNs (immunoblotting, RT-qPCR); type: cell-based, human; details: tunicamycin 5 μg/ml, 24 h
Method: as §3, §5, §4

DAXX = DAXX (Homo sapiens, UniProt Q9UER7 Q9UER7:1-740); test: EMSA; significantly preferential over random control; 50 nM probe, 10 mM Tris pH 7.5, 1 mM EDTA, 0.1 mM DTT, BSA, 5% glycerol, RT 30 min; details: tags: Flag-DAXX (Flag-Daxx/pRK5, Addgene 27974), anti-Flag M2 purified from HEK293 per Methods; label: 5' Alexa Fluor 488 on one strand
DAXX, sequence (Q9UER7 whole entry, one chain of several): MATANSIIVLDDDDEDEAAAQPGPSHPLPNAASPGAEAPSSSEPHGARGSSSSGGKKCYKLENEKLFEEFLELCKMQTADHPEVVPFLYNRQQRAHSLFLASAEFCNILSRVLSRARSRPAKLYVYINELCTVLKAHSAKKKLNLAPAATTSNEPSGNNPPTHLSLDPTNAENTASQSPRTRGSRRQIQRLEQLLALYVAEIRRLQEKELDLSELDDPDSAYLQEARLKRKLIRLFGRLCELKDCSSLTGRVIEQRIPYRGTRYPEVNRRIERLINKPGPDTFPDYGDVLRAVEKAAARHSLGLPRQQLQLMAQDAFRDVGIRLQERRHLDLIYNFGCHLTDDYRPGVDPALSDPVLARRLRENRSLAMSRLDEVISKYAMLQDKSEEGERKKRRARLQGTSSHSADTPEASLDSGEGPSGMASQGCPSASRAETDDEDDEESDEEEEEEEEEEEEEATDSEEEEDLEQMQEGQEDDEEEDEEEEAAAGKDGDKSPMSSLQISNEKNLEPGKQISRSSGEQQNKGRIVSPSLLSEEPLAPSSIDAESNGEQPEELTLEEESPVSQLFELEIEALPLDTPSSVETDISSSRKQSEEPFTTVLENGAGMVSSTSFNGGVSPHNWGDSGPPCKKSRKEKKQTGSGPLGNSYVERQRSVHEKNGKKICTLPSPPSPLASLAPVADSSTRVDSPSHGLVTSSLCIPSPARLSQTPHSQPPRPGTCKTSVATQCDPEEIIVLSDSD
Method: Several assays were used to validate the interaction between DAXX and the G4C2 repeat dsDNA. […] Next, experiments were conducted to test whether DAXX protein and G4C2 repeat dsDNA interact directly. In these experiments, human DAXX protein (FIG. 8D) was purified and an electrophoresis mobility shift assay (EMSA) was performed using 5′ AlexaFluor 488-labeled (G4C2)₁₀ dsDNA or a length-matched random sequence control. […] In addition, experiments were performed to establish the association of endogenous DAXX with the expanded C9orf72 (G4C2)n DNA repeats in situ. In these experiments, DNA fluorescent in situ hybridization (FISH) was used to immunostain DAXX on multiple lines of ALS and/or FTD patient lymphocytes carrying C9orf72 HRE mutations. A co-localization between the DAXX immunostaining and FISH staining at the C9HRE locus was indicated by a well-demarcated punctum present only in the nuclei of patient cells and not in the control cells (FIG. 1A).

For `Nc1ncn([C@H]2C[C@H](O)[C@@H](CO)O2)c(=O)n1` [Compound 5-aza-2, 5-aza-2′-deoxycytidine], the “levels of C9orf72 V2 transcripts” value (C9orf72 V2 transcripts; 5-aza-2 2 μM) was “significantly upregulated” and the “survival of C9HRE iMNs exposed to tunicamycin” value (C9HRE iMNs; TM 5 μg/ml with 5-aza-2 2 μM, vs DMSO, FIG. 7C, D) was “significant increase”.

For `O=C([O-])CCCc1ccccc1.[Na+]` [Na-Phen, sodium phenylbutyrate], the “survival in a mutant SOD1 mouse model of ALS” value [1] is listed as “prolongs the survival”, the “levels of C9orf72 V2 transcripts” value (C9orf72 V2 transcripts; Na-Phen 10 μM) is listed as “significantly upregulated” and the “protection of C9HRE iMNs from tunicamycin-induced stress” value (C9HRE iMNs; TM 5 μg/ml with Na-Phen 10 μM, vs DMSO, FIG. 7C, D) is listed as “robust protection”.

With `C/C=C(/C)C(=O)O[C@H]1C(C)=C2[C@H]([C@@H]1OC(=O)CCCCCCC)[C@@](C)(OC(C)=O)C[C@H](OC(=O)CCC)[C@@]1(O)[C@H]2OC(=O)[C@@]1(C)O` [thapsigargin] the “dynamic regulation of C9orf72 expression” value (C9orf72 protein and mRNA) was “lost”, the “stress-responsive induction of C9orf72 expression at both the protein and mRNA levels” value (C9orf72 protein and mRNA) was “observed” and the “levels of the repressive marker H3K9me3 at the C9orf72 V2 promoter” value (C9orf72 V2 promoter; TG 30 nM) was “decreased”. The “C9V2 mRNA, as measured by RT-qPCR” value (C9orf72 V2 transcripts) was “stress-dependent induction” and the “C9V2 mRNA, as measured by RT-qPCR” value (C9V2 mRNA) was “stress-dependent induction”.

In the case of tunicamycin, the “dynamic regulation of C9orf72 expression” value (C9orf72 protein and mRNA) is reported as “lost”, the “stress-responsive induction of C9orf72 expression at both the protein and mRNA levels” value (C9orf72 protein and mRNA) is reported as “observed” and the “tunicamycin-induced upregulation of C9orf72 expression” value ([2]; iMNs derived from C9HRE patients, FIG. 5A-C) is reported as “absent”. The C9orf72 protein levels ([2]; iMNs from healthy individuals, vs DMSO, FIG. 5A-B) was “significantly increased”, the “C9orf72 V2 mRNA levels” value ([2]; iMNs from healthy individuals, vs DMSO, FIG. 5C) was “significantly increased” and the “levels of the active marker H3K27ac at the C9orf72 V2 promoter” value (C9orf72 V2 promoter; TM 5 μg/ml) was “elevated”. The “C9V2 mRNA, as measured by RT-qPCR” value (C9orf72 V2 transcripts) was “stress-dependent induction”, the “C9V2 mRNA, as measured by RT-qPCR” value (C9V2 mRNA) was “stress-dependent induction” and the “loss of C9HRE iMNs” value (C9HRE iMNs; tunicamycin 5 μg/ml alone, FIG. 7A, B) was “time-dependent loss”.

B1: (G4C2)10 dsDNA (dsDNA)
DNA 1: GGGGCCGGGGCCGGGGCCGGGGCCGGGGCCGGGGCCGGGGCCGGGGCCGGGGCCGGGGCC
DNA 2: GGCCCCGGCCCCGGCCCCGGCCCCGGCCCCGGCCCCGGCCCCGGCCCCGGCCCCGGCCCC
B1: binds (DAXX).
